“Also recorded” adds a separate entry of the source.
What was measured:
ubiquitin [1] = biological target: T1, ubiquitin (Schizosaccharomyces pombe, UniProt P0CH06); assay: Membrane-bound peptide array probed with Cy5-labeled ubiquitin; assay type: binding, S. pombe; details: 15-mer peptides on cellulose membrane, 0.4 µM Cy5-labeled ubiquitin, 1 h, RT, fluorescence at 650 nm, mean of two membranes; compared with Pep1
T1 construct: plasmid coding for S. pombe ubiquitin with an N-terminal 6xhistidine-tag, TEV-cleavage site as well as an N-terminal free cysteine; made in house; host or cells: E. coli BL21(DE3)
Description: Two identical membrane-bound peptide arrays, each with 50 peptide spots, were purchased from JPT peptide technologies as PepSpots™ (Germany). Here, peptides are covalently attached to a cellulose membrane with the C-terminal amino acid through a β-alanine. Each peptide spot contained approximately 2.44·10^15 molecules or 4 nmol peptides. For detection of binding, ubiquitin was labeled at the N-terminal free cysteine with Cy5 maleimide fluorophore (GE Healthcare), which has an emission maximum at 666 nm. Ubiquitin or His6-SUMO (50 µL–70 µM) was reduced with 10 times molar excess tris(2-carboxyethyl)phosphine (TCEP), and incubated with one aliquot of 10 µL, 3 mM Cy5 in dimethyl sulfoxide (DMSO) at RT for 2 h. Excess Cy5 was neutralized with 10 µL 14.3 mM βME, and the mixture was separated on a gravity flow Sepharose column (from NanoTemper Monolith Protein Labeling Kit Red-NHS (Amine Reactive)). The column was equilibrated with tris buffered saline with Tween 20 (TBS-T) buffer (20 mM Tris, 150 mM NaCl, 1 mM EDTA, 500 µL/L Tween 20, pH 7). The ubiquitin/SUMO-Cy5 mixture (73.5 µL) was loaded on the column, followed by 426.5 µL TBS-T buffer. To evaluate the concentration of ubiquitin and Cy5, the absorbance at 280 nm and 650 nm of each fraction was measured on a ND-1000 NanoDrop spectrophotometer (Thermo Fischer Scientific). Fractions where the absorbance peaked at both wavelengths simultaneously were pooled and used for the peptide array.
All wash and incubation steps were performed at RT on a rocking table. The membranes were first washed with 25 mL TBS-T buffer two times for 5 min. Next, the membranes were blocked with blocking buffer (TBS-T with 5% (w/v) skim milk powder) for 1 h and washed for 10 min in TBS-T buffer and the background signal at 650 nm acquired using a Chemidoc imager (Bio-Rad). […] After the incubation, the membranes were washed with TBS-T buffer for five times 5 min and the fluorescence signal at 650 nm acquired on the Chemidoc imager. The fluorescent signal was quantified using the image processing software ImageJ. The intensity from each peptide spot was read using the Microarray Profile plugin. The intensities acquired before adding ubiquitin were subtracted from the signals acquired after. Finally, the mean between the corresponding values from the two membranes was calculated and reported as the signal intensity for each peptide.

SUMO [2] = assay: Membrane-bound peptide array probed with Cy5-labeled SUMO; assay type: binding; details: 15-mer peptides on cellulose membrane, 0.4 µM Cy5-labeled His6-SUMO, 1 h, RT, fluorescence at 650 nm, mean of two membranes
Description: Two identical membrane-bound peptide arrays, each with 50 peptide spots, were purchased from JPT peptide technologies as PepSpots™ (Germany). Here, peptides are covalently attached to a cellulose membrane with the C-terminal amino acid through a β-alanine. Each peptide spot contained approximately 2.44·10^15 molecules or 4 nmol peptides. For detection of binding, ubiquitin was labeled at the N-terminal free cysteine with Cy5 maleimide fluorophore (GE Healthcare), which has an emission maximum at 666 nm. […] To evaluate the concentration of ubiquitin and Cy5, the absorbance at 280 nm and 650 nm of each fraction was measured on a ND-1000 NanoDrop spectrophotometer (Thermo Fischer Scientific). Fractions where the absorbance peaked at both wavelengths simultaneously were pooled and used for the peptide array.
All wash and incubation steps were performed at RT on a rocking table. […] After the incubation, the membranes were washed with TBS-T buffer for five times 5 min and the fluorescence signal at 650 nm acquired on the Chemidoc imager. The fluorescent signal was quantified using the image processing software ImageJ. The intensity from each peptide spot was read using the Microarray Profile plugin. […] Finally, the mean between the corresponding values from the two membranes was calculated and reported as the signal intensity for each peptide.

SUMO [3] = details: read-out: SUMO affinity of known SUMO interacting motif; cited from earlier work
Description: To investigate the binding specificity, we tested the peptides for interaction with the structurally related small ubiquitin-like modifier (SUMO), a ubiquitin-like protein also used as posttranslational modification, but involved in different signaling pathways. SUMO binds to extended stretches of residues with an interaction motif consisting of φφXφ, often followed by negatively charged residues or phosphorylation sites, where φ represents hydrophobic residues. Thus, known SUMO binding features partly overlap the features extracted above. Fluorescently labeled SUMO was added to ...

ubiquitin [4] = biological target: T1, ubiquitin; assay: NMR titration of 15N-ubiquitin (1H-15N HSQC chemical shift perturbations); assay type: binding, S. pombe; details: for Kd: peptide or protein titrated into 100 µM 15N-ubiquitin, 20 mM NaH2PO4, 150 mM NaCl, 5 mM TCEP, pH 7.5, global fit of CSPs to one-site-binding model
Description: For interaction of the peptides with ^15N-ubiquitin, the lyophilized peptides were dissolved in MilliQ water and pH adjusted to 7.5. […] For the titrations of ubiquitin with each peptide, except the WT Dss1 peptide, 100 µM ubiquitin in NMR buffer was measured as one end point, and the 1 mM peptide and 100 µM ubiquitin as the other. Then, the peptide sample was titrated into the ubiquitin sample with titration points at 0, 50, 150, 300, 400, 500 and 1000 µM peptide. […] NMR samples were centrifuged 13.000×g for 5 min and transferred to either single-use 5 mm NMR tubes (Bruker) or 3 mm (Shigemi). To prepare NMR samples of ^15 N-labeled ubiquitin with full-length Dss1 and variants, lyophilized proteins were dissolved directly in the NMR buffer. The variants were each dissolved in 510 µL NMR buffer with 100 µM ubiquitin. The concentration of Dss1 in the NMR sample was determined by measuring the absorbance at 280 nm on a ND-1000 NanoDrop spectrophotometer, calibrated with the NMR buffer with 100 µM ubiquitin. The concentration of Dss1 varied between variants, depending on the purification yield. For all titrations, seven points of varying Dss1 concentration were recorded. To prepare NMR samples of ^15N-labeled ubiquitin with Spd1, Spd1 was buffer exchanged to MilliQ using a 3 kDa cut-off Amicon Ultra-0.5 ml centrifugal filter (Merk Millipore), lyophilized and resuspended in NMR buffer with 100 µM ubiquitin. […] For experiments with ubiquitin, 200 µL 1 mM ubiquitin was buffer exchanged to MilliQ water using a 3 kDa cut-off Amicon Ultra-0.5 ml centrifugal filter (Merk Millipore), lyophilized, and subsequently resuspended in 100 µL NMR buffer with 1 mM Dss1 for a final ubiquitin concentration of 2 mM and 1 mM, respectively. All samples were transferred to 3 mm (Shigemi) NMR tubes.
All NMR spectra were recorded on Bruker Avance III HD 600 MHz spectrometer with a Bruker proton-optimized quadruple resonance NMR ‘inverse’ (QCI) cryoprobe, a Bruker Avance III HD 750 MHz spectrometer with a Bruker proton-optimized triple resonance NMR ‘inverse’ (TCI) cryoprobe and a Bruker Avance Neo 800 MHz spectrometer with a Bruker carbon/nitrogen-optimized triple-resonance NMR 'observe' (TXO) cryoprobe. […] All spectra were zero-filled, apodized using cosine bells in all dimensions, Fourier transformed, and the zero-order phase was corrected manually using either nmrDraw, a component of NmrPipe or qMDD if spectra were recorded using non-linear-sampling (NLS). All spectra were analysed using the Analysis software.
The CSPs were fitted to a one-site-binding model using global fit, and the Kd-values are extracted using Eq. 2.2 Δδobs=Δδmax∙Pt+Lt+Kd-Pt+Lt+Kd^2-4Pt∙Lt^1/2/2∙Pt.
Peaks giving rise to large uncertainties in the fit, either due to weak signals or overlap, were removed after a first iteration of fitting, and the fit repeated on the remaining dataset.

ubiquitin [5] = details: read-out: Kd of known UIM sequence for ubiquitin; cited from earlier work

T1 sequence (P0CH06 1-76 limits assumed): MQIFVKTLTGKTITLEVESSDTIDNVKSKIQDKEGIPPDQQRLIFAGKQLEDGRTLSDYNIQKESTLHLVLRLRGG

Row | Substance | emission intensity of bound Cy5-ubiquitin (apparent affinity) (ubiquitin [1]) | other results
1 | GDDTLWEVNWDDEDI [Pep38, 15-mer variant of Dss1 UBS1, peptide array] | enhanced emission; also recorded: increased ubiquitin affinity | –
2 | GDDTWWENNWDDEDI [Pep11, 15-mer variant of Dss1 UBS1, peptide array] | increased emission intensity | –
3 | LKVDVIDLTIESSSD [Pep47] | – | emission intensity of bound Cy5-SUMO (apparent affinity) (SUMO [2]): high apparent affinity; Kd (SUMO [3]): 1 µM
4 | Ac-DDTLWWEDDWWDDED-NH2 [PepDWD] | – | Kd (ubiquitin [4]): 600 ± 30 µM
5 | Ac-DLWEDDWDLWEDDWD-NH2 [PepDMD] | – | Kd (ubiquitin [4]): 480 ± 40 µM
6 | GDDTFWENNWDDEDI [Pep5, 15-mer variant of Dss1 UBS1, peptide array] | increased emission intensity | –
7 | GDDTLWETNWDDEDI [Pep39, 15-mer variant of Dss1 UBS1, peptide array] | enhanced emission; also recorded: increased ubiquitin affinity | –
8 | GEAEERVVVISSSED [Pep48] | – | emission intensity of bound Cy5-SUMO (apparent affinity) (SUMO [2]): lower-than-average affinity; Kd (SUMO [3]): ~100 µM
9 | Ac-DDTLWWENNWWDDED-NH2 [Pep42] | increased emission intensity; also recorded: highest emission intensity | Kd (ubiquitin [4]): 1200 ± 90 µM
10 | Ac-DLWENNWDLWENNWD-NH2 [Pep43] | highest emission intensity | Kd (ubiquitin [4]): 1300 ± 120 µM
11 | Ac-GDDTLWENNWDDEDI-NH2 [Pep1] | – | chemical shift perturbations (CSPs) induced in the HSQC spectrum of ubiquitin (ubiquitin [4]; 1 mM 15-mer peptide added to 100 µM 15N-ubiquitin (120 µM for POLIIBP and ZFB)): much larger CSPs; Kd (ubiquitin [4]): 3000 ± 200 µM

Second part, led by results:

Row | emission intensity of bound Cy5-ubiquitin (apparent affinity) (ubiquitin [1]) | Substance | other results
12 | increased emission intensity | GDDTLWENNWWDDED [Pep41, 15-mer variant of Dss1 UBS1, peptide array] | –
13 | reduced binding | GDDTLWAAAWDDEDI [Pep36, 15-mer variant of Dss1 UBS1, peptide array] | –
14 | increased emission intensity | GDDTDWENNWDDEDI [Pep8, 15-mer variant of Dss1 UBS1, peptide array] | –
15 | increased emission intensity | GDDDLWENNWDDEDI [Pep25, 15-mer variant of Dss1 UBS1, peptide array] | –
16 | enhanced emission | GDDTLWEPNWDDEDI [Pep40, 15-mer variant of Dss1 UBS1, peptide array] | –
17 | no or negative effects on binding | GDDTLWPNPWDDEDI [Pep37, 15-mer variant of Dss1 UBS1, peptide array] | –
18 | increased emission intensity | GDDTLWEDDWDDEDI [Pep20, 15-mer variant of Dss1 UBS1, peptide array] | –
19 | only weak emission intensities | IQEDWELAERLQREE [Pep46, reference compound] | Kd (ubiquitin [5]): 100 µM
20 | increased emission intensity | GDDTEWENNWDDEDI [Pep9, 15-mer variant of Dss1 UBS1, peptide array] | –
21 | only weak emission intensities | EDPDLKAAIQESLRE [Pep45, reference compound] | Kd (ubiquitin [5]): 20 µM
